# Data reported in patent US12698262B2, “Potassium salt of 2-[(4S)-8-fluoro-2-[4-(3-methoxyphenyl)piperazin-1-yl]-3-[2-methoxy-5-(trifluoromethyl)phenyl]-4H-quinazolin-4-yl]acetic acid” (AIC246 AG & Co. KG, priority 2020, dated 2026).
# Where “and” joins values, the source holds several entries; their conditions need not be identical. Identical values can stand only once.
# Assay: Solubility test in buffers of different pHs (excess salt, HPLC determination of dissolved letermovir, final pH of mixture)
# Assay type: physicochemical
# Conditions: for Solubility / solubility at 2 h: stirred two hours at room temperature; for Solubility / Final pH / solubility at 2 h: Entries 1-3; for Final pH: final mixture; for solubility at 2 h: thermodynamic from solid
# Procedure: Single Crystal X-ray Diffraction (SCXRD): The measured crystal was selected using a Zeiss stereomicroscope using polarized light and prepared under inert conditions immersed in perfluoropolyether as protecting oil for manipulation. Crystal structure determination was carried out using a Rigaku diffractometer equipped with a Pilatus 200K area detector, a Rigaku MicroMax-007HF microfocus rotating anode with MoKα radiation, Confocal Max Flux optics and an Oxford Cryosystems low temperature device Cryostream 700 plus (T=−173° C.). Full-sphere data collection was used with ω and φ scans. Programs used: Data collection and reduction with CrysAlisPro (Rigaku OD, 2015). V/0.60 A and absorption correction with Scale3 Abspack scaling algorithm (CrysAlisPro 1.171.39.12b (Rigaku OD, 2015)). Crystal structure solution was achieved using the computer program SHELXT (Sheldrick, G. M. Acta Cryst. 2015 A71, 3-8.) and visualized using the program SHELXle (C. B. Huebschle, G. M. Sheldrick & B. Dittrich; J. Appl. Cryst., 2011 44, 1281-1284). Missing atoms were subsequently located from difference Fourier synthesis and added to the atom list. Least-squares refinement on F0^2 using all measured intensities was carried out using the program SHELXL 2015 (SHELXL; Sheldrick, G. M. Acta Cryst., 2015 A71, 3-8.). All non-hydrogen atoms were refined including anisotropic displacement parameters. High Performance Liquid Chromatography (HPLC): • Instrument: Thermo Scientific Ultimate 3000 UHPLC • Column: Agilent Zorbax Eclipse XDB C-18, 150×4.6 mm, 5 μm • Flow rate: 1.0 ml/min • Solvent A: 0.1% formic acid in water • Solvent B: 0.1% formic acid in 100% methanol • Stop time: 27 minutes • Injection volume: 10 μl • Column temperature: 35° C. • Wavelength: 260 nm • Autosampler temperature: 10° C.
# An excess of letermovir potassium mixed solvate (the salt of Example 1) or letermovir sodium mixed solvate (the salt of Example 4) was added to 2 mL of the corresponding buffer of different pHs. The saturated suspensions were stirred for two hours at room temperature. […] The final pH of the mixtures was also determined.
Compound,Solubility (buffer pH 2) [mg/mL],Solubility (buffer pH 5) [mg/mL],Solubility (buffer pH 6) [mg/mL],Final pH (initial buffer pH 1),Final pH (initial buffer pH 2),Final pH (initial buffer pH 5),Final pH (initial buffer pH 6),Final pH (initial buffer pH 7),Final pH (initial buffer pH 8),Final pH (initial buffer pH 9),"solubility at 2 h (pH 2, simulated gastric fluid, buffer pH 2) [mg/mL]","solubility at 2 h (pH 5, aqueous buffer, buffer pH 5) [mg/mL]","solubility at 2 h (pH 6, aqueous buffer, buffer pH 6) [mg/mL]","solubility at 2 h (pH 8, aqueous buffer, buffer pH 8) [mg/mL]","solubility at 2 h (pH 9, aqueous buffer, buffer pH 9) [mg/mL]","pH of the final solution (aqueous medium, when letermovir concentration is above 100 mg/mL)","concentration levels achieved by dissolving in aqueous medium (aqueous medium, with respect to letermovir free base)"
"COc1cccc(N2CCN(C3=Nc4c(F)cccc4[C@H](CC(=O)[O-])N3c3cc(C(F)(F)F)ccc3OC)CC2)c1.[K+] (mixture of isomers) [potassium salt mixed solvate, potassium 2-[(4S)-8-fluoro-2-[4-(3-methoxyphenyl)piperazin-1-yl]-3-[2-methoxy-5-(trifluoromethyl)phenyl]-4H-quinazolin-4-yl]acetate]",10.63,16.50,1.17,4.5 and 6.6,7.2 and 7.3,7.1 and 7.2,6.3,7.1 and 7.0 and 7.4,7.7 and 7.6,7.7,14.4,14.3,1.27,> 100,> 100,–,–
"COc1cccc(N2CCN(C3=Nc4c(F)cccc4[C@H](CC(=O)[O-])N3c3cc(C(F)(F)F)ccc3OC)CC2)c1.[K+] [crystalline potassium salt of letermovir, potassium 2-[(4S)-8-fluoro-2-[4-(3-methoxyphenyl)piperazin-1-yl]-3-[2-methoxy-5-(trifluoromethyl)phenyl]-4H-quinazolin-4-yl]acetate]",–,–,–,–,–,–,–,–,–,–,–,–,–,–,–,7.4-7.8 and 7-8,above 100 mg/mL
